Laboratory results: publication PMC10746543, “Design principles for cyclin K molecular glue degraders” (Nature Chemical Biology, 2023)
Where “and” joins values, the source holds several entries; their conditions need not be identical. Equal values may be shown once. Read-outs that look alike come from different tables or passages of the source.

Assays:
CDK13 = molecular target: T1, CDK13 (Homo sapiens, UniProt Q14004+Q16531); assay: Label-free quantitative mass spectrometry in MDA-MB-231 cells, CDK13; format: cell-based
T1 construct: endogenous in cells; host or cells: MDA-MB-231
T1 sequence (Q14004 whole entry): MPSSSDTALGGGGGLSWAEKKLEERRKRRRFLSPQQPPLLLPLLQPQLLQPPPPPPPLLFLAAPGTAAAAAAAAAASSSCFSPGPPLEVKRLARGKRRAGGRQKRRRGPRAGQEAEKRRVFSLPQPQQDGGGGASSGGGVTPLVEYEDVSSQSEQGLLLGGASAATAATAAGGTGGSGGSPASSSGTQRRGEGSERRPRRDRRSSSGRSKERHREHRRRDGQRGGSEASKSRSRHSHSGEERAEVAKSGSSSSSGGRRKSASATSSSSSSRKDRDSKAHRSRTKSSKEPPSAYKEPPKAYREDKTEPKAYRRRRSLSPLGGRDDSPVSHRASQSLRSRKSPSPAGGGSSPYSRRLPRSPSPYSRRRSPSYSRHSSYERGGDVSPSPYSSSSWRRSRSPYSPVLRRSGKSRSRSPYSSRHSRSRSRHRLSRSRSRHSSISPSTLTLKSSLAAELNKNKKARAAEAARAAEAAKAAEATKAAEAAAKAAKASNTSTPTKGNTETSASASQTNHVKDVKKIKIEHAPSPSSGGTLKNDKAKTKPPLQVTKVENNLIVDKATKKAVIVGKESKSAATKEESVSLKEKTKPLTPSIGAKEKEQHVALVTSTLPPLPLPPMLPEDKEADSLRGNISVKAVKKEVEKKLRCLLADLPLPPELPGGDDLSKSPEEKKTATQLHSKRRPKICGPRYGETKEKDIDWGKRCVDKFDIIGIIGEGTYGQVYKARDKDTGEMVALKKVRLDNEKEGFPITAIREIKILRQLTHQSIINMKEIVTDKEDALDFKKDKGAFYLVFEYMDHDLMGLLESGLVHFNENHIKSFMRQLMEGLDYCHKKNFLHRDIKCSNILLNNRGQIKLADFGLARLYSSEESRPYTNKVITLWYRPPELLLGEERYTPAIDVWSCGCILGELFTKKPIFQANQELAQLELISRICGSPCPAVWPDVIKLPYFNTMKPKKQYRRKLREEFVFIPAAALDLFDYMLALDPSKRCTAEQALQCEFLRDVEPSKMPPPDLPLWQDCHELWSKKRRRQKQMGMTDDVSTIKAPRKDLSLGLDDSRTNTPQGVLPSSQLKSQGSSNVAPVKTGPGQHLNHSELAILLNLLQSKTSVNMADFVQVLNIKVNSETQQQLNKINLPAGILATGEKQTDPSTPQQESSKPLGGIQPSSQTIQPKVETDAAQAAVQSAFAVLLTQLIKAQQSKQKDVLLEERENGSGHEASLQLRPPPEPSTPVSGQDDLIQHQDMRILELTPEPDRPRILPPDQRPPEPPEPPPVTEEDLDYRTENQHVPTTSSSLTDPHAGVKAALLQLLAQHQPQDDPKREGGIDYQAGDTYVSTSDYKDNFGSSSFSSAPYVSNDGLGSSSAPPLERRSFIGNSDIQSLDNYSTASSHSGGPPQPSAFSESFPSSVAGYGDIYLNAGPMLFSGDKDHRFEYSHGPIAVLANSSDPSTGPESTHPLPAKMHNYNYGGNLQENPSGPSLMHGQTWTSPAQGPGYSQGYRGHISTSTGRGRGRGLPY
T1 sequence (O75909 whole entry partner): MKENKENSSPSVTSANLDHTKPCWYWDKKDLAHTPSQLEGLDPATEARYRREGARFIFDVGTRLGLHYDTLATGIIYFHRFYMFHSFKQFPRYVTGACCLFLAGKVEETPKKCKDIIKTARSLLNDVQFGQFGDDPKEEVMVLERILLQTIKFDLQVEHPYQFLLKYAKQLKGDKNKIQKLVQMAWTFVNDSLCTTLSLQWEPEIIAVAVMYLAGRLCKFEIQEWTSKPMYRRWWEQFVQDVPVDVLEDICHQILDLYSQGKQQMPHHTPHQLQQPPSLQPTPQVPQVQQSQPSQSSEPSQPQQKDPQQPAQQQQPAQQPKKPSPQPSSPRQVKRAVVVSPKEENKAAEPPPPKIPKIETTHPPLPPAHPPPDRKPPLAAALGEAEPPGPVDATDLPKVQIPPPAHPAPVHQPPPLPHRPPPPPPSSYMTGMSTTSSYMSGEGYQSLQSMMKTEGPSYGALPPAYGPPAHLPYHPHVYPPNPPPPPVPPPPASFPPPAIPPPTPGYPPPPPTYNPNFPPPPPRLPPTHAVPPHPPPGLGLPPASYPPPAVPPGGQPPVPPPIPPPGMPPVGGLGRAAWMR
T1 sequence (Q16531 2-1140 limits assumed): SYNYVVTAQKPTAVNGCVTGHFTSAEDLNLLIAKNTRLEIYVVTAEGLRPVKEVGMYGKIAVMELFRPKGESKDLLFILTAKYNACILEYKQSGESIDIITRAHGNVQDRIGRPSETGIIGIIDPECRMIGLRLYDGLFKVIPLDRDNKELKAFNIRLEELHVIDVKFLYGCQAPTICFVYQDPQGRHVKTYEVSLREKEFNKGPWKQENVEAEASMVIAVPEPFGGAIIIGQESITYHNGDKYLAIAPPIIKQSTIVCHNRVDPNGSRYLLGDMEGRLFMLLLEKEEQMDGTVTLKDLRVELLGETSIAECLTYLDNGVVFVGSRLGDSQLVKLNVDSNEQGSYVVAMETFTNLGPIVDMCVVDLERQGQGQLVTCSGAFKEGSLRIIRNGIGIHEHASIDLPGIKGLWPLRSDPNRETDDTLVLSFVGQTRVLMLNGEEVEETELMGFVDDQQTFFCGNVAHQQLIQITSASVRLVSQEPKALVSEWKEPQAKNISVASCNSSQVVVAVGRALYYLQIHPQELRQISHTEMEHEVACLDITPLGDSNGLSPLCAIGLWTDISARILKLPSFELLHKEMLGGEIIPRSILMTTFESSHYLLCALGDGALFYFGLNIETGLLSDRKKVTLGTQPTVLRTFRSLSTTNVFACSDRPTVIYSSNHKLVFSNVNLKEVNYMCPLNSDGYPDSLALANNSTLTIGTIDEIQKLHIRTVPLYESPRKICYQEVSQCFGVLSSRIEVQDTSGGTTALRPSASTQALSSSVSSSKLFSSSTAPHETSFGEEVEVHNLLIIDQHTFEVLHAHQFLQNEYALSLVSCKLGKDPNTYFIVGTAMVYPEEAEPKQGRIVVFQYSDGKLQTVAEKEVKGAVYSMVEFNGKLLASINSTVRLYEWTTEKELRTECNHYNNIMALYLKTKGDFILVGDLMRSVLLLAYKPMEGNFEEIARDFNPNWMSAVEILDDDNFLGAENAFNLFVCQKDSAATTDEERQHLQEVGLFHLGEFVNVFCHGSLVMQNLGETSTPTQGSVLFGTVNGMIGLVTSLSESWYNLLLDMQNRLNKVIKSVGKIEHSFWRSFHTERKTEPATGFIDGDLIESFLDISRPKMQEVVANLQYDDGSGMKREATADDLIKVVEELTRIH
Method: (§1) MDA-MB-231 cells were treated with DMSO or a cyclin K degrader compound at 1 µM for 5 h. Cells were collected by centrifugation and washed with phosphate-buffered saline before snap freezing in liquid nitrogen. Cells were lysed by addition of lysis buffer (8 M urea, 50 mM NaCl, 50 mM 4-(2-hydroxyethyl)-1-piperazineethanesulfonic acid (EPPS) pH 8.5, and protease and phosphatase inhibitors) and homogenization by bead beating (BioSpec) for three repeats of 30 s at 2,400 rpm. Bradford assay was used to determine the final protein concentration in the clarified cell lysate. Then 50 µg of protein for each sample was reduced, alkylated and precipitated using methanol/chloroform as previously described, and the resulting washed precipitated protein was allowed to air dry. Precipitated protein was resuspended in 4 M urea, 50 mM HEPES pH 7.4, followed by dilution to 1 M urea with the addition of 200 mM EPPS, pH 8. Proteins were first digested with LysC (1:50; enzyme:protein) for 12 h at room temperature. The LysC digestion was diluted to 0.5 M urea with 200 mM EPPS pH 8 followed by digestion with trypsin (1:50; enzyme:protein) for 6 h at 37 °C. Sample digests were acidified with formic acid to a pH of 2–3 before desalting using C18 solid phase extraction plates (SOLA, Thermo Fisher Scientific). Desalted peptides were dried in a vacuum-centrifuged and reconstituted in 0.1% formic acid for liquid chromatography–mass spectrometry analysis.
(§2) Data were collected using a TimsTOF Pro2 (Bruker Daltonics) coupled to a nanoElute LC pump (Bruker Daltonics) via a CaptiveSpray nano-electrospray source. Peptides were separated on a reversed-phase C18 column (25 cm × 75 µm inner diameter, […], IonOpticks) containing an integrated captive spray emitter. Peptides were separated using a 50 min gradient of 2–30% buffer B (acetonitrile in 0.1% formic acid) with a flow rate of 250 nl min^−1 and column temperature maintained at 50 °C.
(§3) Data-dependent acquisition (DDA) was performed in Parallel Accumulation-Serial Fragmentation (PASEF) mode to determine effective ion mobility windows for downstream diaPASEF data collection. The ddaPASEF parameters included: 100% duty cycle using accumulation and ramp times of 50 ms each, one Trapped Ion Mobility Spectrometry(TIMS)-MS scan and ten PASEF ramps per acquisition cycle. The TIMS-MS survey scan was acquired between 100 m/z and 1,700 m/z and 1/K0 of 0.7–1.3 V s cm^−2. Precursors with one to five charges were selected, and those that reached an intensity threshold of 20,000 arbitrary units were actively excluded for 0.4 min. The quadrupole isolation width was set to 2 m/z for m/z < 700 and 3 m/z for m/z > 800, with the m/z between 700 m/z and 800 m/z being interpolated linearly. […] To perform diaPASEF, the precursor distribution in the DDA m/z-ion mobility plane was used to design an acquisition scheme for data-independent acquisition (DIA) data collection that included two windows in each 50 ms diaPASEF scan. Data were acquired using 16 of these 25 Da precursor double window scans (creating 32 windows) that covered the diagonal scan line for doubly and triply charged precursors, with singly charged precursors able to be excluded by their position in the m/z-ion mobility plane. These precursor isolation windows were defined between 400 m/z and 1,200 m/z and 1/K0 of 0.7–1.3 V s cm^−2.
(§4) DirectDIA mode includes first extracting the DIA data into a collection of MS2 spectra which are searched using Spectronaut’s Pulsar search engine. The search results are then used to generate a spectral library which is then employed for the targeted analysis of the DIA data. MS/MS spectra were searched against a Swissprot human database (January 2021). Database search criteria largely followed the default settings for directDIA including: tryptic with two missed cleavages, fixed carbomidomethylation of cysteine, and variable oxidation of methionine and acetylation of protein N-termini and precursor Q-value (FDR) cut-off of 0.01. […]

cyclin K = assay: Label-free quantitative mass spectrometry in MDA-MB-231 cells, cyclin K; format: cell-based, human
Method: as §1, §2, §3, §4

[1] = test system: cyclin K–eGFP degradation reporter; assay: Cyclin K reporter stability analysis (dual-color cyclin K–eGFP reporter); format: cell-based, human; conditions: source data sheet correlations; read-out: DC50
Summary of the method: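 HEK293T–Cas9 cells carrying the cyclin K–eGFP reporter were seeded at 1 × 10^6 ml^−1 and exposed to drug or DMSO for 5 h. Flow cytometry gave geometric means of eGFP and mCherry in round, mCherry-positive cells. The eGFP/mCherry ratio was normalized to the mean of three DMSO controls.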

CDK12–cyclin K and DDB1 = molecular target: T2, CDK12–cyclin K and DDB1 (Homo sapiens, UniProt Q16531+Q9NYV4, K965R); assay: TR-FRET ternary complex formation assay (compound titration); format: binding; conditions: for TR-FRET signal at compound concentration: replicate titrations
T2 construct: His6–CDK12 (a.a. 713–1,052); full-length or beta-propeller B domain deletion (ΔBPB: a.a. 396–705 deleted) constructs of His6–DDB1ΔBPB, StrepII–Avi–DDB1, or His6–Spy–DDB1; made in house; host or cells: Trichoplusia ni High Five insect cells (baculovirus)
T2 sequence (Q9NYV4 713-1052 K965R): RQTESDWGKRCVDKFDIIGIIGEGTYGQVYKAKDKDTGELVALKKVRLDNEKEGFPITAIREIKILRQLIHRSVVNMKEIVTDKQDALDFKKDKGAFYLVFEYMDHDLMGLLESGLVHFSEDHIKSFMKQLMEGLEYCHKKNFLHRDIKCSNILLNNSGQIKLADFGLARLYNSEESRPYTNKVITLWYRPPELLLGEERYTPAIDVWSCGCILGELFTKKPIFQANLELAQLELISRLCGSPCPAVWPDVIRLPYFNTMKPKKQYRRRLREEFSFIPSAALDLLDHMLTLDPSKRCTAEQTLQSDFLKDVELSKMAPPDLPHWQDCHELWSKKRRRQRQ
T2 sequence (O75909 1-267 partner): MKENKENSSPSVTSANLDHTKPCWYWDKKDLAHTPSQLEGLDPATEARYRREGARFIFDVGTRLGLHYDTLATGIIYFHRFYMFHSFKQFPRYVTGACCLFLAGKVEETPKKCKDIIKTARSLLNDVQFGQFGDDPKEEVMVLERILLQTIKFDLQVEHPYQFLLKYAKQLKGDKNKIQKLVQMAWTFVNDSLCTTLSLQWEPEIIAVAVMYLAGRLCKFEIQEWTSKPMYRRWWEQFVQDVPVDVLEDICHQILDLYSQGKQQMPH
T2 sequence (Q16531 whole entry): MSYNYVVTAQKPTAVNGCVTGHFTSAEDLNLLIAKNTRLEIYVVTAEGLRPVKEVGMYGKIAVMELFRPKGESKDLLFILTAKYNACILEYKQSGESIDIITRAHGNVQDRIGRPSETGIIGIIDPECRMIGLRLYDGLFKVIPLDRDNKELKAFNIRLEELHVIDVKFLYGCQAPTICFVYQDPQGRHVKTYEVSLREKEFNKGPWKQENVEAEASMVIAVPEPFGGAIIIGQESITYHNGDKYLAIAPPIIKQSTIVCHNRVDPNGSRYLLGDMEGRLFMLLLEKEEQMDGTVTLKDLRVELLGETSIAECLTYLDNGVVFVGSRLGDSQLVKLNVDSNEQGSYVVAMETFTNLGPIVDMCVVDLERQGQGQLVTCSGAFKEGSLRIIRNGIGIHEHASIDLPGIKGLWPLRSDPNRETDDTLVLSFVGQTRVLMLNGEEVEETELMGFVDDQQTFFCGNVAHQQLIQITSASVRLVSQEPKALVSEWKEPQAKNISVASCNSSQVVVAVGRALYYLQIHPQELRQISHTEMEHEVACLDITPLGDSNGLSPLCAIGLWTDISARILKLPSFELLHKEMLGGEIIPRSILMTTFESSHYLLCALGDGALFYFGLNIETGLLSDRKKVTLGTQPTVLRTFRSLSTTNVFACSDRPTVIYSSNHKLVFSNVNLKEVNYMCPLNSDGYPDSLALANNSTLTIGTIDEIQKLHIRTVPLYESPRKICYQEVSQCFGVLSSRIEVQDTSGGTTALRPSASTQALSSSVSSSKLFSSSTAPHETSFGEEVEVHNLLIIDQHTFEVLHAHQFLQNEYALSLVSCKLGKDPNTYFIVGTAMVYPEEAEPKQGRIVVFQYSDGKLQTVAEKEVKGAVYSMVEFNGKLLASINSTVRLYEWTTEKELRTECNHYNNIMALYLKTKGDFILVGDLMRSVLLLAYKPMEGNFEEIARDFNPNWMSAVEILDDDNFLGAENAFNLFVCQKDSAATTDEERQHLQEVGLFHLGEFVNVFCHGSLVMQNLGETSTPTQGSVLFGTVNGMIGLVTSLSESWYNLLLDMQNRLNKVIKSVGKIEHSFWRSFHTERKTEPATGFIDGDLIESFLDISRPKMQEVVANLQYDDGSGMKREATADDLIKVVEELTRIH
Summary of the method: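 Delayed (70 μs) time-resolved read; FRET computed as 520 nm over 490 nm emission.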

HEK293T cells = assay: Drug sensitivity assay (CellTiter-Glo viability) with or without MLN4924 pretreatment; format: cell-based, human; conditions: Supplementary Table 2
Summary of the method: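 Viability of HEK293T–Cas9 cells was compared after 3-day drug treatment with or without 100 nM MLN4924 pretreatment (2 h, versus DMSO). Values are CellTiter-Glo signals relative to DMSO controls.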

CDK12 = molecular target: T3, CDK12 (Homo sapiens, UniProt Q16531+Q9NYV4); assay: Label-free quantitative mass spectrometry in MDA-MB-231 cells, CDK12; format: cell-based
T3 construct: endogenous in cells; host or cells: MDA-MB-231
Method: as §1, §2, §3, §4

[2] = label-free quantitative MS, replicate values
[3] = normalised to DMSO = 1, replicate values

CC[C@H](CO)Nc1nc(NCCCc2cccc(C)c2)c2ncn(C(C)C)c2n1 [DS30]
CDK13 peptide count (CDK13; [2]): 256.293 and 280.454
CDK13 peptide count (DMSO-normalised) (CDK13; [3]): 0.3813 and 0.431
cyclin K abundance (label-free MS) (cyclin K; individual replicates, sheet EDF7): 199.985 and 224.267
cyclin K abundance (label-free MS) (cyclin K; [2]): 199.985 and 224.267
CCNK peptide count (DMSO-normalised) (cyclin K; [3]): 0.1093 and 0.1247
average CCNK peptide count (cyclin K; sheet EDF7): 212.126
DC50 [1]: 78 nM
TR-FRET signal at compound concentration (CDK12–cyclin K and DDB1; compound concentration 0.468 nM): 0.2538 and 0.2487 and 0.2092
TR-FRET signal at compound concentration (CDK12–cyclin K and DDB1; compound concentration 2.16 nM): 0.3096 and 0.3093 and 0.2708
TR-FRET signal at compound concentration (CDK12–cyclin K and DDB1; compound concentration 3.6 nM): 0.4411 and 0.4525 and 0.4039
TR-FRET signal at compound concentration (CDK12–cyclin K and DDB1; compound concentration 7.92001 nM): 0.6962 and 0.7001 and 0.6519
TR-FRET signal at compound concentration (CDK12–cyclin K and DDB1; compound concentration 15.84 nM): 1.209 and 1.183 and 1.188
TR-FRET signal at compound concentration (CDK12–cyclin K and DDB1; compound concentration 30.96 nM): 1.971 and 1.9872 and 1.9274
TR-FRET signal at compound concentration (CDK12–cyclin K and DDB1; compound concentration 62.6401 nM): 3.092 and 3.095 and 2.939
TR-FRET signal at compound concentration (CDK12–cyclin K and DDB1; compound concentration 125.28 nM): 3.635 and 3.6 and 3.694
TR-FRET signal at compound concentration (CDK12–cyclin K and DDB1; compound concentration 244.8 nM): 4.013 and 4.0411
TR-FRET signal at compound concentration (CDK12–cyclin K and DDB1; compound concentration 993.601 nM): 3.909 and 4.092 and 4.233
TR-FRET signal at compound concentration (CDK12–cyclin K and DDB1; compound concentration 2001.6 nM): 4.11 and 4.134 and 4.272
EC50 (CDK12–cyclin K and DDB1; in vitro complex formation, 50 nM CDK12–cyclin K, 100 nM DDB1, text and figures, read-out: TR-FRET EC50): 35 ± 1 nM
EC50 (CDK12–cyclin K and DDB1; sheet MOESM7, read-out: log TR-FRET EC50 (converted)): 34.8 nM
EC50 (CDK12–cyclin K and DDB1; source data sheet correlations, read-out: TR-FRET EC50): 34.8 nM
EC50 (HEK293T cells; Homo sapiens, HEK-293T, HEK293T viability, 72 h, compound alone, read-out: Cellular assays EC50): 451 nM
Toxicity rescue (HEK293T cells; MLN4924-mediated cytotoxicity rescue, 10 µM used where n.d.): 496%
CDK12 peptide count (CDK12; [2]): 530.324 and 557.769
CDK12 peptide count (DMSO-normalised) (CDK12; [3]): 0.5892 and 0.5761
